{"source": "patent US8614203B2", "about": "“Methods for the treatment of a central nervous system injury via a tapered administration protocol” (Emory University, priority 2005, dated 2013)", "key": {"[1]": {"test_system": "bilateral contusions of the medial prefrontal cortex", "assay": "Example 1: necrotic cavity, lateral ventricle and striatal area measurements after TBI (Nissl/thionine histology)", "type": "in vivo, Sprague-Dawley rats", "conditions": "4 mg/kg in peanut oil, 21 days after surgery", "description": "(§1) Male Sprague-Dawley rats (300 g) were housed individually in wire cages and kept on a reverse light-dark cycle (0800-2000 h). […] All procedures involving animals conformed to guidelines set forth in the Guide for the Care and Use of Laboratory Animals (U.S. Department of Health and Human Services, Pub no. 85-23, 1985) and were approved by the Emory University Institutional Animal Care and Use Committee.\n(§2) Bilateral contusions of the medial prefrontal cortex were created by a pneumatic impactor device as previously described. Briefly, rats were given anesthetized with ketamine/xylazine (90 mg/kg; 10 mg/kg) and placed in a stereotaxic apparatus. A craniectomy (diameter 6 mm) was made over the midline of the prefrontal cortex with its center 1.5 mm AP to bregma. After removal of the bone, the tip of the impactor (diameter 5 mm) was moved to +3.0 mm AP; 1.0 mm ML (from bregma), and checked for adequate clearance. Trauma was produced by pneumatically activating the piston to impact −2.0 mm DV (from dura) at a velocity of 3 m/s with a brain contact time of 0.5 seconds.\nControl animals received injections of vehicle at similar time-points. Animals were coded with regard to surgery and treatment to prevent experimenter bias during behavioral testing and histological examination.\nTwenty-one days after surgery, animals were perfused with 100 ml 0.1 M phosphate-buffered saline (PBS; pH 7.4) followed by 400 ml 4% paraformaldehyde in 0.1 M phosphate buffer (PB; pH 7.4). Following cryoprotection in 30% sucrose, coronal 40-μm-thick sections were cut on a freezing microtome, immediately mounted on gel-coated slides and stained for Nissl with thionine to determine placement and extent of the injury.\nMean area measurements of lesion size were quantified from sections at 15 rostral-caudal levels spaced 300 μm apart. […] Perimeters of the striatum and the lateral ventricles were also traced and mean areas were quantified from 7 rostral-caudal levels (300 μm apart).\n(§3) Experienced individuals who were blind to treatment conditions of the study conducted all histological and behavioral analyses. All data were tested for normality and homoschedasticity before being analyzed by parametric analysis of variance (ANOVA). MWM results were analyzed using separate mixed-factorial (4 groups×5 days) analysis of variance (ANOVA) on each of the two 5-day testing periods (acquisition and retention respectively). Results of the BSN task were analyzed using the mixed-factorial ANOVA (4 groups×2 post-injury trials). […] Pearson r coefficients were calculated to determine whether significant correlations could be detected between histological (e.g., lesion size and cellular density) and behavioral parameters (e.g., acquisition and retention of the MWM task and measures of sensory neglect)."}, "[2]": {"test_system": "bilateral contusions of the medial prefrontal cortex", "assay": "Example 1: cell counts of Nissl-stained neurons (STR, GP, DMN, VMN) after TBI", "type": "in vivo, Sprague-Dawley rats", "conditions": "4 mg/kg in peanut oil", "description": "as §1\nas §2, with “seconds. […]” for “seconds.”\nCell counts were done on an Olympus BH-2 microscope equipped with an eyepiece micrometer grid (sample area=40 um^2 at ×400 magnification). […] Only cells with neuronal nuclei and intact membranes were counted as neurons.\nas §3"}, "[3]": {"test_system": "bilateral contusions of the medial prefrontal cortex", "assay": "Example 1: bilateral sensory neglect (BSN) task after TBI", "type": "in vivo, Sprague-Dawley rats", "conditions": "4 mg/kg, 3 days (LP3); 6 and 20 days post injury", "description": "as §1\nBilateral contusions of the medial prefrontal cortex were created by a pneumatic impactor device as previously described. Briefly, rats were given anesthetized with ketamine/xylazine (90 mg/kg; 10 mg/kg) and placed in a stereotaxic apparatus. […]\nExperienced individuals who were blind to treatment conditions of the study conducted all histological and behavioral analyses. All data were tested for normality and homoschedasticity before being analyzed by parametric analysis of variance (ANOVA). MWM results were analyzed using separate mixed-factorial (4 groups×5 days) analysis of variance (ANOVA) on each of the two 5-day testing periods (acquisition and retention respectively). Results of the BSN task were analyzed using the mixed-factorial ANOVA (4 groups×2 post-injury trials). […]\nMeasures of attentional abilities, using a bilateral sensory neglect (BSN) task, were recorded one day prior to surgery (baseline) and on postsurgical days 6 and 20. […]"}, "traumatic brain injury": {"test_system": "traumatic brain injury", "assay": "Example 2: dose response, Morris water maze after TBI, cyclodextrin vehicle", "type": "in vivo", "description": "Beginning one week after surgery, spatial learning ability was assessed in the Morris water maze (MWM) task described previously. Each animal was tested for a total of 10 days in two 5-day trial blocks (acquisition and retention respectively). Animals were placed in the pool (nose facing the pool-wall) at one of four randomly determined starting positions (e.g.: N, S, E, W). Each rat was allowed to swim freely in the pool until it found the hidden platform or until 90 seconds had elapsed. […] Once on the platform, animals were allowed to rest for 10 seconds and then removed from the pool and placed near a heat lamp for warmth. Each rat was given two trials per day with a 20-second intertrial interval (ITI). The dependent measures for this task were latency to find the hidden platform and swim strategy (e.g., percent of time spent in the inner vs. outer annuli). Swim speed measures were recorded daily in order to delineate motor dysfunction from learning impairment.\nSurgery to induce a traumatic brain injury was performed as outlined in Example 1. Behavior testing using the Morris Water Maize was performed as outlined in Example 1 and the methods for the tactical adhesive removal were performed."}, "[4]": {"test_system": "medial frontal cortex injury", "assay": "Example 3: lesion reconstruction (lesion volume)", "type": "in vivo, Sprague-Dawley rats", "conditions": "tapered withdrawal, injured (TWI)", "description": "(§4) Male Sprague-Dawley rats received either medial frontal cortex injury or sham surgery. Injections were given 1 and 6 hours post-injury, and every 24 hours for 7 days. Treatment groups (n=8) encompassed injured (I) and sham (S) acute withdrawal (AW), tapered withdrawal (TW) and vehicle (V) treatments. TW injections were progressively halved over the final two treatments. Behavioral testing was conducted post-surgery, mid- and post-withdrawal. Activity boxes were used to investigate vertical movements and exploration: Sensory neglect and anxiety behaviors were also analyzed. Brain harvesting was performed at 8 days or 3 weeks post-injury. Perfused tissue sections were analyzed for lesion volume and immunohistochemical response. Fresh brain tissue was flash frozen in chilled 2-methyl butane, and then homogenized for Western blot analysis."}, "[5]": {"test_system": "p53, active Caspase 3, TNFα and NFκB", "assay": "Example 3: Western blot of apoptotic and inflammatory proteins", "type": "in vivo, Sprague-Dawley rats", "description": "as §4"}, "ischemic injury": {"test_system": "ischemic injury", "conditions": "following ischemic injury in rats (Jiang et al. 1996); cited from earlier work"}}, "data": [{"molecule": "CC(=O)[C@H]1CC[C@H]2[C@@H]3CCC4=CC(=O)CC[C@]4(C)[C@H]3CC[C@]12C", "note": "[progesterone, pregn-4-ene-3,20-dione]", "values": [{"measurement": "enlargement of the lateral ventricles", "setting": "[1]; 3 or 5 days", "result": "did not have any effect on this measure"}, {"measurement": "mean striatal area", "setting": "[1]; 3 or 5 days", "result": "No between-group differences"}, {"measurement": "necrotic cavity size", "setting": "[1]; 3 days (LP3), vs injured animals", "result": "tended to be smaller than in the brains of injured animals"}, {"measurement": "necrotic cavity formation", "setting": "[1]; 5 days (LP5), vs vehicle-injected injured animals", "result": "significant reductions in overall necrotic cavity formation"}, {"measurement": "injury-induced neuronal loss (mean cellular density STR, GP, DMN, VMN)", "setting": "[2]; 3 days (LP3)", "result": "significant reduction of injury-induced neuronal loss in all brain regions examined"}, {"measurement": "injury-induced neuronal loss (mean cellular density STR, GP, DMN, VMN)", "setting": "[2]; 5 days (LP5)", "result": "significant reduction of injury-induced neuronal loss in all brain regions examined"}, {"measurement": "neuronal loss in the VMN, 5 days vs 3 days of treatment", "setting": "[2]; 5 days compared with 3 days", "result": "more effective than 3 days at attenuating neuronal loss in the VMN"}, {"measurement": "BSN task performance (latency to remove adhesive stimuli)", "setting": "[3]", "result": "impaired on this task compared to control animals at both 6 and 20 days post injury"}, {"measurement": "Morris water maze performance", "setting": "traumatic brain injury; high dose 32 mg/kg in a cyclodextrin-containing vehicle", "result": "did not show any beneficial effect"}, {"measurement": "Morris water maze performance", "setting": "traumatic brain injury; low dose 8 mg/kg in a cyclodextrin-containing vehicle", "result": "consistent improvement in Morris water maze performance"}, {"measurement": "Morris water maze performance", "setting": "traumatic brain injury; moderate dose 16 mg/kg in a cyclodextrin-containing vehicle", "result": "consistent improvement in Morris water maze performance"}, {"measurement": "lesion volume", "setting": "[4]", "result": "smallest lesion volume"}, {"measurement": "expression of apoptotic and inflammatory proteins, outcome vs vehicle", "setting": "[5]; all progesterone treatments (acute and tapered) vs vehicle-only controls", "result": "all progesterone treatments led to better outcomes compared to vehicle-only controls"}, {"measurement": "apoptosis and inflammation (p53, active Caspase 3, TNFα, NFκB)", "setting": "[5]; tapered withdrawal (TW)", "result": "decreased with TW"}, {"measurement": "cell damage and neurological deficit", "setting": "ischemic injury", "result": "reduce cell damage and neurological deficit"}]}]}
